Reference: patent publication US11306100B2, “Spirooxindole compounds as GSK3B inhibitors and process for preparation thereof” (COUNCIL OF SCIENTIFIC & INDUSTRIAL RESEARCH, priority 2017, dated 2022)

Assays:
[1] = target: recombinant GSK3β (Homo sapiens, UniProt P49841); test: ADP-Glo kinase assay of GSK3β activity; type: biochemical; conditions: for IC50: GSK3β kinase activity, 2 μM ATP
Procedure: Activity of recombinant GSK3β is measured using ADP-Glo Kinase assay according to supplier's standard protocol with minor modifications in 384 well format. Briefly, kinase reaction mixture was prepared by adding […] of recombinant enzyme, 2 μM ATP, 1 μg of enzyme substrate along with test compound or DMSO to a final volume of 5 μl. The kinase reaction was performed by incubating the mixture at room temperature for 17 mins. To correct reaction back ground a substrate blank reaction was also performed. ADP glow reagent (equal volume to reaction mixture) was added to the reaction mixture to deplete any unused ATP added to the kinase reaction and incubated at further 40 min at 27° C. Then 10 μl of kinase detection reagent was added followed by incubation for 30 min at 27° C. to convert ADP to ATP and introduce luciferase to measure kinase activity. The luminescence was measured using luminometer (Perkin Elmer) which is directly proportional to ADP generated in kinase reaction. To determine the amount of ADP produced in kinase reaction and calculate specific activity of the enzyme, a conversion curve is prepared by serial dilution of ADP and ATP mixture. Specific activity of the GSK3β was calculated using the following equation. (ADP(kinase reaction)−ADP(substrate blank)) in mmol)/(Reaction time in min)×(GSK3β in mg).

[2] = test system: NF-kB activity in PANC-1 cells; test: NFkB luciferase reporter assay; type: cell-based; conditions: 48 h treatment, dose dependent
Procedure: In order to evaluate the effect of GSK3β inhibition on NF-kB activity, a reporter assay has been performed in the presence of identified inhibitors. To perform reporter assays, PANC-1 cells were cultured in a 48 well plate (16000 cells/well) overnight. Following day, cells were transfected with appropriate amount NF-kB reporter construct using lipofectamine 2000 as per manufacturer's protocol. After 16 hrs of post transfection cells were treated with identified GSK3β inhibitors and positive controls. After 48 h of treatment, cells were harvested in directly 1×ccl buffer. For measuring luciferase activity, 5 μl of cell lysate was mixed with 20 μl of assay reagent containing substrate for luciferase in MTP well plate as per manufacturer's protocol. The luciferase activity was determined by measuring luminescence at wavelengths in multimode reader. The protein concentration of the lysates was estimated by Bradford assay to normalize luciferase activity with protein present in the lysates. Then the relative luciferase activity was calculated according to control cells treated with DMSO set to 1. All experiments were performed in triplicates and the mean values with ±SD are presented here.

[3] = test system: cellular GSK3β signalling in PANC-1 cells; test: Western blot of GSK3β signalling and NFkB target proteins in PANC-1 cells; type: cell-based; conditions: for phosphorylation of GSK3β: PANC-1 cells treated with compound; for β-catenin level: PANC-1 cells versus control (DMSO); for BCL2 and XIAP levels: compound with TRAIL versus TRAIL alone or compound alone; for bcl2 and xiap expression: dose dependence of compound; for Cyclin D1 levels / phosphorylation of GSK3β (9th serine residue): in combination with TRAIL; for p-GS (phosphorylated glycogen synthase) level: increasing concentrations of compound, total GS unaffected
Procedure: The compounds inhibiting GSK3β activity in-vitro added to PANC-1 cells to determine their potential against intracellular GSK3β signalling pathways in cancer cells. Briefly, PANC-1 cells were plated in 60 mm plates (100,000 cells/4 mL) and cultured in the standard DMEM medium containing 10% serum. After culturing for 18 hrs, different concentrations of test compounds or standard controls prepared in DMSO were added to culture media to achieve final concentration 0 to 100 μM of compound to cells. Cells were further continued to grow for 48 h with constant supply of 5% CO2 in humid incubator. The time course (0 to 48 h) experiment was carried out simultaneously with fixed concentration of compound showing 50% growth inhibition. At the end of the experiments, all cells were scraped directly in cold PBS and washed for 3 times before lysis directly in 2D lysis buffer (8M urea, 2M thiourea, 4% CHAPS, 4 mM tris base and 65 mM DTT) for isolation of proteins to perform western blots. The protein concentration was determined by modified Bradford assay.
To perform western blot, protein extracts were separated on 12% SDS-PAGE and electrophoretically (1 mA/cm^2 membrane for 1 hr) transferred onto the nitrocellulose membrane by semi-dry method. After protein transfer, membrane was stained with Ponceau S solution (0.2% Ponceau S in 3% Trichloroacetic acid) for 2 min to see efficiency of electrophoretic transfer. The membrane was destained in ddH2O to visualize the protein bands and further destained with TBST (20 mM Tris, 138 mM NaCl, pH 7.6 and 0.1% Tween 20) for blotting. To avoid non-specific detection of target proteins, blotted membranes were blocked with BSA (3% BSA in TBST solution). All antibodies against specific protein targets of interest were purchased from Cell Signaling Technology, USA if not mentioned specifically. Then the blots were incubated with antibodies prepared in blocking buffer (1:1000 Antibody to blocking buffer dilution) for 18 h with constant shaking at 4° C. Three washing steps in PBS each for 5 mins removed the excess and non-specific antibodies. For visualization, blots were incubated with secondary antibody conjugated to either horseradish peroxidase or alkaline phosphatase [anti-(mouse IgG) or anti-(rabbit IgG), diluted 1:5000 in TBST] for 1 h at room temperature. After three washes in PBS, the reaction was developed either by addition of LumiGLO substrate (Cell Signaling Technology) followed by capturing on X-ray film or addition of chromogenic NBT (nitro-blue tetrazolium chloride) and BCIP (5-bromo-4-chloro-3′-indolyphosphate p-toluidine salt) substrate for alkaline phosphatase developing purple colored bands. The blots were scanned for densitometry performed using Image-J program.

[4] = test system: PANC-1 cells; test: Cell viability, Sulforhodamine B assay; type: cell-based; conditions: for inhibition at 30 µM: Homo sapiens, PANC-1, 30 μM compound in combination with TRAIL (10 ηg/mL), read-out: inhibition of cell growth; for effectiveness against cell growth / sensitisation to TRAIL: in combination with TRAIL (10 ηg/mL), FIG. 3A
Procedure: Cell viability was measured using Sulforhodamine B assay. The cytotoxic effect of the compounds with GSK3β inhibitory potential was tested against PANC-1 cells. Initially, the PANC-1 cells were seeded in flat bottom 96-well plate (5000 cells/100 μL) in complete medium and cultured for 18 hrs under standard conditions. After 18 h the cells were treated with either the different concentration of compounds, standard drugs or DMSO as solvent control. The final DMSO concentration to cells was maintained <2% in all cytotoxic assays. Each compound was tested in triplicate and the cytotoxicity was determined as the average of that triplicate. Further, the plates were incubated for another 48 h in an incubator maintained at 37° C. with a constant supply of 5% CO2. The cells were fixed using 10% TCA and incubated for 1 h at 4° C. Then the plates were rinsed carefully with MQ water and air dried at room temperature. To all the wells of MTP plate 0.057% SRB solution was added and kept for approximately 30 min before it was rinsed off using 1% acetic acid. The plates were then air dried and 100 μL of 10 mM tris base was added to each well to solubilize the SRB before absorbance was measured at 510 nm. The measure of absorbance is directly proportional to cell growth and is thus used to calculate % reduction in the rate of cell proliferation according to control DMSO treated cells. All experiments were performed in triplicates; mean % age proliferation values with ±SD were plotted here.

Chain of recombinant GSK3β (P49841 whole entry): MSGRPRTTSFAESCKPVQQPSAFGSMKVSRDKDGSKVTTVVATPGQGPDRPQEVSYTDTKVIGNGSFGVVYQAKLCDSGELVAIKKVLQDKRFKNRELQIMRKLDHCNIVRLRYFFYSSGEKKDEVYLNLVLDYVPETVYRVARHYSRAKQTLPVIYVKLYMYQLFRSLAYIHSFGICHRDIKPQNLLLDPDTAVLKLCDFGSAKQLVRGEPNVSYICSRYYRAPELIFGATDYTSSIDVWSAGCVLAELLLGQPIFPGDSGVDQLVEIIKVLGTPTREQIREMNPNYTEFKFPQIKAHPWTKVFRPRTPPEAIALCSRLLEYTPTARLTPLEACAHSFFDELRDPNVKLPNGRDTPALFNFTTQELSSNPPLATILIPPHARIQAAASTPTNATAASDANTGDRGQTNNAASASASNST

| Compound | inhibition of GSK3β in in-vitro kinase assays [1] | IC50 [1] | NFkB luciferase activity [2] | phosphorylation of GSK3β [3] | β-catenin level [3] | BCL2 and XIAP levels [3] | bcl2 and xiap expression [3] | Cyclin D1 levels [3] | phosphorylation of GSK3β (9th serine residue) [3] | p-GS (phosphorylated glycogen synthase) level [3] | inhibition at 30 µM [4] | effectiveness against cell growth / sensitisation to TRAIL [4] |
| --- | --- | --- | --- | --- | --- | --- | --- | --- | --- | --- | --- | --- |
| CCOC(=O)c1ccc(-c2ccccc2OCc2cn(CC3CC4(CO3)C(=O)Nc3ccccc34)nn2)nc1C (stereo not drawn) [AB-O, Ethyl 2-methyl-6-(2-((1-((2′-oxo-4,5-dihydro-2H-spiro[furan-3,3′-indoline]-5-yl)methyl)-1H-1,2,3-triazol-4-yl)methoxy)phenyl)nicotinate] | potent inhibition | 3.88 ± 0.01 µM | significantly decreased | significantly decreased | accumulation of β-catenin | synergistic effect | decreased in a dose dependent manner | significantly reduced | synergistic effect | significantly decreased | 50% | more effective |
| COc1ccccc1N1CCN(CC2CC3(CO2)C(=O)Nc2ccccc23)CC1 (stereo not drawn) [AB-U, 5-((4-(2-Methoxyphenyl)piperazin-1-yl)methyl)-4,5-dihydro-2H-spiro[furan-3,3′-indolin]-2′-one] | potent inhibition | 4.92 ± 0.13 µM | significantly decreased | significantly decreased | accumulation of β-catenin | synergistic effect | decreased in a dose dependent manner | significantly reduced | synergistic effect | significantly decreased | 50% | more effective |
